Reference: patent US20250269000A1, “ANTI-TUMOUR RESPONSES TO CYTOKERATINS” (SCANCELL LIMITED, priority 2020, published 2025)
Where a SMILES comes first, the peptide text is derived from it. Where no end group is shown, it is not given here. [ ]: non-standard residue; d: D form. Cit = NC(=O)NCCC[C@H](N)C(=O)O

How the values were obtained:
B16 tumour cells = assay: Tumour challenge, B16 in C57BL/6 mice; format: in vivo, mouse; settings: immunised tumour bearing C57BL/6 mice
Method: C57BL/6 were challenged with B16 tumour (parental non-transfected cell line). Four days later the C57BL/6 mice were immunised with Cyk8 8-26 cit peptide. Overall survival (A), tumour volume (B) at day 13 and tumour volume throughout the study (C), post tumour implant are shown for unimmunised control mice and mice immunised with Cyk8 8-26 cit peptide. Statistical differences between immunised and control mice were determined by Mantel-Cox test, p values are shown. The tumour volume medians and p values are shown as determined by Mann Whitney U test, n=10 in all group.
For tumour challenge experiments, mice were challenged with 1×10^5 B16 HHDII/iDP4 cells subcutaneously on the right flank […] before primary immunisation (unless stated otherwise) and then immunised as described above. Tumour growth was monitored at 3-4 days intervals and mice humanely euthanised once tumour reached ≥10 mm in diameter.
The effect of immunisation with Cyk8 8-26 cit on the growth of the mouse B16 melanoma cell line was assessed in C57BL/6. Mice were challenged with B16 tumour cells 3 days prior to immunisation with Cyk8 8-26 cit.

[1] = test system: HHDII/DP4 transgenic mice; assay: Ex vivo IFNγ ELISpot on splenocytes of peptide-immunised HHDII/DP4 mice; format: in vivo, mouse; settings: for IFNγ responses detected in immunised mice: 25 μg peptide s.c. with CpG/MPLA once a week for three weeks, ELISpot 7 days after third immunisation; for cross-reactivity of the response to the wt version: HHDII/DP4 mice immunised with cit peptide; for IFNγ response to citrullinated peptide compared to media only: screening, HHDII/DP4 mice, 25 μg peptide with CpG/MPLA weekly for three weeks; for T cell responses in HLA-DP4 transgenic mice / reactivity to the unmodified wildtype sequence: summary statement
Method: The HHDII/HLA-DP4 transgenic strain of mouse as described in patent WO2013/017545 A1 (EMMA repository, France) and C57BL/6 mice (Charles River, UK) were used, aged between 8 and 12 weeks, and cared for by the staff at Nottingham Trent University. All work was carried out under a Home Office project licence. Peptides were dissolved in 10% dimethylformamide to 1 mg/mL and then emulsified (a series of dilutions) with the adjuvant CpG and MPLA 6 μg/mouse of each (Invivogen, UK). Peptides (25 μg/mouse) were injected subcutaneously at the base of the tail.
ELISpot assays were performed using murine IFNγ capture and detection reagents according to the manufacturer's instructions (Mabtech, Sweden). In brief, anti-IFNγ antibody was coated onto wells of a 96-well Immobilin-P plate. Synthetic peptides (at a variety of concentrations) and 5×10^5 per well splenocytes were added to the wells of the plate in triplicate. LPS at 5 μg/mL was used as a positive control. Peptide pulsed target cells were added where relevant at 5×10^4 per well in triplicate and plates incubated for 40 hours at 37° C. After incubation, captured IFNγ was detected by a biotinylated anti-IFNγ antibody and developed with a streptavidin alkaline phosphatase and chromogenic substrate. Lipopolysaccharide (LPS; 5 μg/mL) was used as a positive control. For blocking studies, anti-CD4 blocking antibody (RPA-T4) and anti-CD8 blocking antibody (2.43) from Bioxcell were used at 20 μg/mL. Spots were analysed and counted using an automated plate reader (Cellular Technologies Ltd).
HHDII/DP4 and C57BL/6 mice were immunised with human citrullinated peptides in combination with CpG/MPLA as an adjuvant. 25 μg of peptide was administered subcutaneously as a single immunisation given once a week for three weeks Mice were culled 7 days after the third immunisation, the immune response to each peptide was assessed by ex vivo IFNγ ELISpot (FIG. 2). We have previously shown that citrullinated peptides can induce responses in the transgenic DR4 mouse strain. Given that different mouse strains have different MHC repertoires, the transgenic strain HHDII/DP4 and non-transgenic C57BL/6 mice were used for screening.
To determine if the immune response to the Cyk8 peptides is specific to the citrullinated peptide and not the wild type (wt) version, HHDII/DP4 transgenic mice were immunised with Cyk8 101-120 cit, 133-151 cit, 217-236 cit, 371-388 cit, 381-399 cit or Cyk8 101 wt, 133-151 wt, 371-388 wt peptides. HHDII/DP4 mice received 25 μg peptide with CpG/MPLA subcutaneously once a week for three weeks. Mice were culled 7 days after the third immunisation, the immune response to each peptide was assessed by ex vivo ELISpot (FIGS. 3A and 3B).
To determine whether the response to Cyk8 8-26 cit, Cyk8 101-120 cit, Cyk8 133-151 cit, Cyk8 371-388 cit, Cyk8 381-399 cit is CD4 dependent HHDII/DP4 transgenic mice and C57BL/6 mice received 25 μg peptide subcutaneously in combination with CpG/MPLA as an adjuvant, once a week for three weeks (FIG. 6A HHDII/DP4, FIG. 6B C57BL/6). Mice were culled 7 days after the third immunisation, an ELISpot assay was performed in the presence of an anti CD4 or CD8 antibody. […]

[2] = test system: splenocytes of immunised HHDII/DP4 mice; assay: Peptide titration (avidity of T cell response) by IFNγ ELISpot; format: cell-based, mouse; settings: peptide titration 0.001 to 10 μg/ml
Method: Transgenic mouse strains expressing HHDII/DP4 and parental C57BL mice were used to screen for IFNγ responses to peptide (A and B respectively). Mice were immunised with peptide pools of up to 2-3 non-overlapping human Cyk8 citrullinated peptides over three weeks. Splenocytes were harvested 21 days after the initial dose was administered. Ex vivo responses to stimulation with human Cyk8 cit peptides was assessed by IFNγ ELISpot. Media only responses were used as a negative control. n≥3 symbol represents mean response for individual mice, line represents median value between mice. Statistical significance of peptide response was compared to media only responses for each pool and determined using ANOVA with Dunnett's post-hoc test * […], ** p<0.01, *** p<0.001, **** p<0.0001, only significant p values are shown. […]
ELISpot assays were performed using murine IFNγ capture and detection reagents according to the manufacturer's instructions (Mabtech, Sweden). […] After incubation, captured IFNγ was detected by a biotinylated anti-IFNγ antibody and developed with a streptavidin alkaline phosphatase and chromogenic substrate. […] Spots were analysed and counted using an automated plate reader (Cellular Technologies Ltd).
Significant IFNγ responses were detected to human Cyk8 citrullinated peptides in transgenic HHDII/DP4 mice (FIG. 2A) and C57BL/6 mice (FIG. 2B). […]

[3] = HHDII/DP4, blocking antibody 20 μg/mL

| log EC50 (avidity of T cell response) ([2]; unit not given) | log EC50 (avidity of T cell response) [2] | Molecule | associated toxicity (B16 tumour cells) | IFNγ responses detected in immunised mice [1] | cross-reactivity of the response to the wt version [1] | IFNγ response to citrullinated peptide compared to media only [1] | T cell responses in HLA-DP4 transgenic mice [1] | reactivity to the unmodified wildtype sequence [1] | IFNγ response in the presence of the CD8 antibody [1, 3] | IFNγ response in the presence of the anti CD4 antibody [1, 3] |
| --- | --- | --- | --- | --- | --- | --- | --- | --- | --- | --- |
| – | – | CC(C)[C@H](NC(=O)[C@H](CCCCN)NC(=O)[C@H](Cc1ccc(O)cc1)NC(=O)[C@H](CO)NC(=O)[C@@H](N)CCCCN)C(=O)N[C@@H](CO)C(=O)N[C@H](C(=O)N[C@@H](CO)C(=O)NCC(=O)N1CCC[C@H]1C(=O)N[C@@H](CCCNC(N)=O)C(=O)N[C@@H](C)C(=O)N[C@@H](Cc1ccccc1)C(=O)N[C@@H](CO)C(=O)N[C@@H](CO)C(=O)N[C@@H](CCCNC(N)=O)C(=O)N[C@@H](CO)C(=O)N[C@@H](Cc1ccc(O)cc1)C(=O)N[C@H](C(=O)O)[C@@H](C)O)[C@@H](C)O [Cyk8 8-26 cit, KSYKVSTSGP-cit-AFSS-cit-SYT] (H-KSYKVSTSGP[Cit]AFSS[Cit]SYT-OH) | no associated toxicity | – | – | – | – | – | – | – |
| -5.0 to-5.9 | – | LTDEINFL-cit-QLYEEEI-cit-ELQ (LTDEINFL[Cit]QLYEEEI[Cit]ELQ) [Cyk8 217-236 cit, Cyk8 217-236, citrullinated at positions 225 and 233] | – | Moderate to high | no cross-reactivity | significant immune responses | potent T cell responses | minimal reactivity | – | – |
| – | -6.0 to-6.5 M | cit-SNMDNMFESYINNL-cit-cit-QL ([Cit]SNMDNMFESYINNL[Cit][Cit]QL) [Cyk8 133-151 cit, Cyk8 133-151, citrullinated at position 133, 148 and 149] | – | Moderate to high | no cross-reactivity | significant immune responses | potent T cell responses | minimal reactivity | not significantly reduced | not significantly reduced |
